Assay results published in PMC4364341, “NBD delivery improves the disease phenotype of the golden retriever model of Duchenne muscular dystrophy” (Skeletal Muscle, 2014).

Tests used:
wild type and GRMD dogs = conditions: dog, in vivo
Source text: Necropsies were completed on all six of the NBD-treated GRMD dogs and two of the wild type dogs. Sections of kidney, liver, spleen, lung, heart (right and left ventricle), popliteal lymph node, adrenal gland, thyroid, duodenum, large intestine, pancreas, stomach, and cerebrum were collected and fixed in 10% buffered formalin. Tissues were sent to Histo-Scientific Research Laboratories in Frederick, MD, USA, a contract research laboratory where they were processed, embedded in paraffin, sectioned, and stained with H&E. An American College of Veterinary Pathology-certified pathologist evaluated slides.

wild type dogs = conditions: dog, in vivo
Protocol: (§1) For mice muscles, histopathological assessment was performed as earlier described. For canine samples, CS, lateral gastrocnemius, vastus lateralis, and diaphragm muscles were assessed at the end of the 4-month treatment period when dogs were necropsied. Muscle samples were snap frozen in isopentane cooled in liquid nitrogen, and stored at -80°C. A total of 16 dogs (3 wild type, 2 wild type + NBD, 5 untreated GRMD, and 6 GRMD + NBD) were assessed. Serial frozen sections (n = 10 per dog) from each muscle were processed. For each stain, quantitation was performed on three 10 μm sections of each muscle. To determine the degree of inflammation, cells that stained with a canine specific macrophage PM2K antibody were quantitated. Muscle damage was assessed by scoring for IgG-positive myofibers using immunofluorescence, and necrotic foci by hematoxylin and eosin (H&E) staining. Centrally located nuclei (CLN) were quantified on H&E sections to determine the degree of regeneration. Staining was quantitated on an Olympus BX51 microscope with Microsuite Five software (Olympus Soft Imaging Solutions GmbH, Center Valley, PA, USA). A composite score for all four muscles, reflecting muscle injury, inflammation, and regeneration, was determined.

GRMD dogs = experiment: Cranial sartorius (CS) circumference, GRMD dogs; assay type: in vivo, dog; conditions: age 6 months, NBD 10 mg/kg IV 3x weekly for 4 months, n = 6
Source text: We have previously shown that the CS muscle undergoes dramatic hypertrophy in GRMD dogs and that this hypertrophy tracks with postural abnormalities. Accordingly, we use CS circumference measured at surgery during routine biopsy as a surrogate for muscle hypertrophy and associated postural changes in GRMD [24]. Dogs were anesthetized (above), and an incision was made over the cranial aspect of the thigh. In advance of biopsy, the CS muscle was isolated. Nylon suture was placed around the muscle at approximately midsection and tightened so as to snugly encircle the muscle belly. The two ends of the suture were secured with a pair of hemostats and then cut on the muscle side of the hemostat. The length in mm was divided by body mass in kg (mm/kg). An average of two measurements was recorded.

mdx mice = experiment: Histopathology of quadriceps muscles of NBD-treated mdx mice; assay type: in vivo, mouse; conditions: 4 weeks, Quad muscles
Protocol: Mdx mice (C57BL/10ScSn-DMD^mdx/J) were purchased from The Jackson Laboratory and housed in the animal facility (University Laboratory Animal Resources, ULAR) at The Ohio State University under conventional conditions with constant temperature and humidity, and fed with standard diet. Treatment of mice was performed between 5 and 7 weeks of age as earlier described, and in accordance with the guidelines of the Institutional Animal Care and Use Committee at The Ohio State University. Efficacy of NBD was assessed comparing four groups (n = 5 each) of mdx mice treated either with vehicle or 3, 2, or 1 × per week with NBD by intraperitoneal (IP) delivery. Two separate groups (n = 10) were dosed subcutaneously (SQ) with vehicle or NBD, and finally two groups (n = 5) were treated with vehicle or NBD by intravenous (IV) delivery. Vascular access ports (VAP) were placed subcutaneously over the dorsal torso and a catheter was surgically inserted into the jugular vein. The catheter was kept clear by a pre- and post-wash with heparin.
as §1, with “Serial frozen sections (n = 10 per dog) from each muscle were processed.” left out, “A composite score for all four muscles, reflecting muscle injury, inflammation, and regeneration, was determined.” left out

For “TALDWSWLQTE [NBD, NBD peptide (…) fused to an Antennapedia protein transduction domain]”, the Necropsy findings (wild type and GRMD dogs) was “histopathological changes related to NBD”, the “Histopathological lesions in NBD treated versus untreated wild type dogs” value (wild type dogs) was “negligible” and the “CS Circumference” value (GRMD dogs) was 3.67 ± 0.65 mm/kg. For the same sequence, the “Histopathologic improvement with reduced treatment frequencies” value (mdx mice; IP 10 mg/kg, 2x or 1x per week compared to 3x per week, n = 5 per group) was “less pronounced”, the “Histopathologic improvement after intravenous dosing” value (mdx mice; IV via VAP, 10 mg/kg 3x weekly, n = 5 per group) was “significant histopathologic improvement” and the “Reduction of muscle inflammation and necrosis after subcutaneous dosing” value (mdx mice; SQ 10 mg/kg 3x weekly, n = 10 per group) was “no such improvements were observed”.
